# Measurements: US7647217B2, “Structure of the farnesoid X receptor ligand binding domain and methods of use therefor” (The Salk Institute for Biological Studies, priority 2002, dated 2010)
# Tested on: IBABP mRNA in HT29-FXRFL cells
# Experiment: Northern blot of IBABP mRNA induction in HT29 stable cell lines
# Format: cell-based, human
# Procedure: 20 μg total RNA was isolated using Trizol (Invitrogen) and used for Northern blot analysis. cDNA probe for human IBABP was prepared and hybridized to the blot. Blots were normalized by β-actin expression.
# HepG2 or HT29-derived cell lines were typically cultured in medium containing superstripped FBS for 24 hr before the addition of a ligand or DMSO (vehicle) for an additional 24-48 hr. Total RNA was isolated using TRIzol reagent and was resolved (10 μg/lane) on a 1% agarose, 2.2 M formaldehyde gel, transferred to a nylon membrane (Hybond N^+; Amersham Biosciences, Inc.), and cross-linked to the membrane with UV light.
# cDNA probes were radiolabeled with [α-^32P]dCTP using the highprime labeling kit (Amersham Biosciences, Inc.). Membranes were hybridized using the QuikHyb hybridization solution (Stratagene, La Jolla, Calif.) according to the manufacturer's protocol. Blots were normalized for variations of RNA loading by hybridization to a control probe, either, 18 S ribosomal cDNA, or the ribosomal protein 36B4. The RNA levels were quantitated using a PhosphorImager (ImageQuant software; Molecular Dynamics, Inc., Sunnyvale, Calif.) in addition to being exposed to X-ray film.
# Human colon cells HT29 (FXR null until differentiated) were infected with retroviral vectors that expressed either FXR constructs and the puromycin-resistant gene or the puromycin-resistant gene alone. Puromycin resistant cells were isolated and pooled cell populations were propagated that harbored either the vector alone (HT29-BABE), overexpressed FXR full length (HT29-FXRFL), a non-functional FXR truncated at the AF2 region (HT29-FXR-AF2), or a constitutively active FXR that has the VP16 activation domain fused N-terminal of the protein (HT29-VP16-FXR). Confirmation of the successful establishment of the different stable cell lines was established via northern blot analysis of FXR message levels in the cells (see FIG. 4A). […]
# The ability of the novel compounds identified herein to induce IBABP gene expression in this cell system was also examined. Total RNA from HT29 stable cells treated overnight with fexaramine, fexarine and fexarene was probed for IBABP gene expression (see FIG. 4D).
# [1] = HT29-FXRFL, overnight treatment
smiles,measurement,setting,value
"C[C@H](CCC(=O)O)[C@H]1CC[C@H]2[C@@H]3[C@H](O)C[C@@H]4C[C@H](O)CC[C@]4(C)[C@H]3CC[C@]12C [CDCA, chenodeoxycholic acid, reference compound]",induction of IBABP mRNA in control lines,HT29-BABE or HT29-FXR-AF2 cell lines,No induction
same,concentration of maximal activation of the IBABP gene,[1],100 µM
same,induction of IBABP mRNA,[1],robust concentration dependent induction
